# Source: paper PMC11678425, “(-)-Syringaresinol Exerts an Antidepressant-like Activity in Mice by Noncompetitive Inhibition of the Serotonin Transporter” (Pharmaceuticals, 2024)
# Legend:
# hSERT WT = molecular target: T1, hSERT WT (Homo sapiens, UniProt P31645); assay: APP^+ uptake, hSERT WT; format: cell-based
# T1 construct: forward and reverse primers were used to amplify a full-length hSERT; expressed in transfected cells; host or cells: HeLa cells (CCL-2), transient, pcDNA3.1
# hSERT L565A = molecular target: T2, hSERT L565A (Homo sapiens, UniProt P31645, L565A); assay: APP^+ uptake, hSERT L565A; format: cell-based; conditions: S2 site mutant, read-out: SYR IC50 for Transport
# T2 construct: forward and reverse primers were used to amplify a full-length hSERT; expressed in transfected cells; host or cells: HeLa
# hSERT I172F = molecular target: T3, hSERT I172F (Homo sapiens, UniProt P31645, I172F); assay: APP^+ uptake, hSERT I172F; format: cell-based; conditions: S1 site mutant, read-out: SYR IC50 for Transport
# T3 construct: forward and reverse primers were used to amplify a full-length hSERT; expressed in transfected cells; host or cells: HeLa
# Procedure: (§1) HeLa cells were cultured in Dulbecco’s Modified Eagle’s Medium supplemented with 10% fetal bovine serum, 100 units/mL penicillin, and 100 μg/mL streptomycin at 37 °C in a humidified 5% CO2 incubator. Cells grown at ~70% confluence in a 6 cm culture dish were transfected with hSERT cDNA in pcDNA3.1 by lipofectamine 2000. Transfected cells were incubated for 12 h at 37 °C with 5% CO2 and then transferred into 96-well plates. After being grown for an additional 12–16 h, the cells were then assayed for APP^+ uptake or ASP^+ binding.
# (§2) Measurement of transport or ligand binding activity of SERT was performed by using its fluorescent substrate (APP^+) or ligand (ASP^+), respectively. The cells transiently expressing WT or mutants of hSERT were applied for various treatments. Briefly, the cells were washed twice with 100 μL KRH buffer containing 20 mM HEPES (Neofroxx, Einhausen, Germany), pH 7.4, 120 mM NaCl, 1.3 mM KCl, 2.2 mM CaCl2, 1.2 mM MgSO4, and 0.1% (w/v) glucose. APP^+ uptake was measured by adding 100 μL KRH buffer containing 2 μM APP^+ and incubating for 5 min at 22 °C. Excess APP^+ was then removed by 3× rapid washing with 100 μL KRH buffer each time. The extent of APP^+ accumulated in the cells was determined by fluorescence spectrometry with an Infinite 200 Pro microplate reader (Tecan, Männedorf, Switzerland). […]
# hSERT G498T = molecular target: T4, hSERT G498T (Homo sapiens, UniProt P31645, G498T); assay: ASP^+ binding, hSERT G498T; conditions: S2 site mutant, read-out: SYR IC50 for Binding
# T4 construct: forward and reverse primers were used to amplify a full-length hSERT; expressed in transfected cells; host or cells: HeLa cells, transient, pcDNA3.1
# hSERT T583A = molecular target: T5, hSERT T583A (Homo sapiens, UniProt P31645, T583A); assay: ASP^+ binding, hSERT T583A; conditions: S2 site mutant, read-out: SYR IC50 for Binding
# T5 construct: forward and reverse primers were used to amplify a full-length hSERT; expressed in transfected cells; host or cells: HeLa
# hSERT Y95F = molecular target: T6, hSERT Y95F (Homo sapiens, UniProt P31645, Y95F); assay: ASP^+ binding, hSERT Y95F; conditions: S1 site mutant, read-out: SYR IC50 for Binding
# T6 construct: forward and reverse primers were used to amplify a full-length hSERT; expressed in transfected cells; host or cells: HeLa
# hSERT S438T = molecular target: T7, hSERT S438T (Homo sapiens, UniProt P31645, S438T); assay: ASP^+ binding, hSERT S438T; conditions: S1 site mutant, read-out: SYR IC50 for Binding
# T7 construct: forward and reverse primers were used to amplify a full-length hSERT; expressed in transfected cells; host or cells: HeLa
# [1] = tested on: hSERT S1 mutants (Y95F, I172F, S438T); assay: APP^+ uptake, S1 site mutants compared with WT; format: cell-based, human
# Procedure: as §1, §2
# CUMS mice = assay: Home cage food consumption after NSFT; format: in vivo, mouse; conditions: mouse, in vivo
# Procedure: Figure 6 Animal behavioral tests. (A) Schematic illustration of animal behavioral test timeline. Mice were exposed to CUMS for 3 weeks, as described in Section 4. […] For the CUMS group, saline was given instead of drugs. NSFT was performed after 16–18 h food deprivation, followed by FST and TST. (B) NSFT. The latency time to food in NSFT was counted. (C) Home cage food consumption. Food consumed by individual mice in the home cage (g) within a 20 min period was measured after NSFT. (D) FST. The immobility time during a 2 to 6 min period in FST was measured. (E) TST. The immobility time during 2 to 6 min was counted. n = 8–10 mice/group. Bars represent the mean ± SEM. * p < 0.05 compared with the control or CUMS group, respectively, by one-way ANOVA followed by post hoc tests. ns, not significant.
# NSFT was performed after 16 h food deprivation, as described previously. The mouse was placed in an open field (24 × 40 × 14 cm), where a new chow was put in the center, and the latency time to bite food was counted over 10 min. Home cage feeding within a 20 min period was measured after the test. FST was carried out according to a protocol described previously. The mouse was placed into a beaker (Bomex, Beijing, China) with a height of 18 cm filled with water (22 ± 1 °C) for 6 min. The immobile time was measured during minutes 2–6. […] The immobile time during minutes 2–6 was measured.
# hSERT = hSERT (Homo sapiens, UniProt P31645); format: cell-based; parameters: forward and reverse primers were used to amplify a full-length hSERT; expressed in transfected cells; host or cells: HeLa
# Chain of hSERT (P31645 whole entry): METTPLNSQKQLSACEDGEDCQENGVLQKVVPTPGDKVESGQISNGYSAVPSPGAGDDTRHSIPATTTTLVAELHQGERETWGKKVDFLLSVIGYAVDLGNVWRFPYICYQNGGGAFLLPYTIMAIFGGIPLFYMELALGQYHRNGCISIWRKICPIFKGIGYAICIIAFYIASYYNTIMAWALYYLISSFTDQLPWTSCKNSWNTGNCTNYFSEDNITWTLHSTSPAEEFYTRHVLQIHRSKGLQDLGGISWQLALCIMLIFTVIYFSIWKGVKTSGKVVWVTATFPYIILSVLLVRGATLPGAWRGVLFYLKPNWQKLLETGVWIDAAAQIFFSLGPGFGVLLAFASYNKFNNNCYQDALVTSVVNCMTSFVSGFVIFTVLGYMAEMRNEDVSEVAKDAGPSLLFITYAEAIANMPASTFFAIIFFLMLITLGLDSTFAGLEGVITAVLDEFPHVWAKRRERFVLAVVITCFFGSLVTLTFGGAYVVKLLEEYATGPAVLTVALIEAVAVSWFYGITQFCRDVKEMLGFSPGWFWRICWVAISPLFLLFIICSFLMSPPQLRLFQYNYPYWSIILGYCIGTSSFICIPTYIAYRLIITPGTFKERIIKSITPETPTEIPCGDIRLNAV
# T1 sequence (P31645 whole entry): as above
# T6 sequence (P31645 whole entry Y95F): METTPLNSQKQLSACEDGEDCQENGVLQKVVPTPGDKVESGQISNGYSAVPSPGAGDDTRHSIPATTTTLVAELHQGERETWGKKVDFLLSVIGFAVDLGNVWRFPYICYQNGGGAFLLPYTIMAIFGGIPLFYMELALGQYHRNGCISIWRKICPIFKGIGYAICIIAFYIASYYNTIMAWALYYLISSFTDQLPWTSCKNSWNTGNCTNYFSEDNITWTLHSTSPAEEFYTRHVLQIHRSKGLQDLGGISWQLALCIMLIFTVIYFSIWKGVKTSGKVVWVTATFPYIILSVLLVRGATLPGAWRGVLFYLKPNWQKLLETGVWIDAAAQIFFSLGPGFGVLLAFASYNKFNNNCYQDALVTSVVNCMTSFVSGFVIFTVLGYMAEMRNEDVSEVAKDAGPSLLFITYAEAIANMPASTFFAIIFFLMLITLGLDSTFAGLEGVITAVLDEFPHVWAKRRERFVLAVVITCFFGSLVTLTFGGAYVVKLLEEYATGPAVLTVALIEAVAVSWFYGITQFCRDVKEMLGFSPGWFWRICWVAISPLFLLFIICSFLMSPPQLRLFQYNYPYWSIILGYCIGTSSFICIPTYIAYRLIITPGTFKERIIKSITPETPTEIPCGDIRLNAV
# T4 sequence (P31645 whole entry G498T): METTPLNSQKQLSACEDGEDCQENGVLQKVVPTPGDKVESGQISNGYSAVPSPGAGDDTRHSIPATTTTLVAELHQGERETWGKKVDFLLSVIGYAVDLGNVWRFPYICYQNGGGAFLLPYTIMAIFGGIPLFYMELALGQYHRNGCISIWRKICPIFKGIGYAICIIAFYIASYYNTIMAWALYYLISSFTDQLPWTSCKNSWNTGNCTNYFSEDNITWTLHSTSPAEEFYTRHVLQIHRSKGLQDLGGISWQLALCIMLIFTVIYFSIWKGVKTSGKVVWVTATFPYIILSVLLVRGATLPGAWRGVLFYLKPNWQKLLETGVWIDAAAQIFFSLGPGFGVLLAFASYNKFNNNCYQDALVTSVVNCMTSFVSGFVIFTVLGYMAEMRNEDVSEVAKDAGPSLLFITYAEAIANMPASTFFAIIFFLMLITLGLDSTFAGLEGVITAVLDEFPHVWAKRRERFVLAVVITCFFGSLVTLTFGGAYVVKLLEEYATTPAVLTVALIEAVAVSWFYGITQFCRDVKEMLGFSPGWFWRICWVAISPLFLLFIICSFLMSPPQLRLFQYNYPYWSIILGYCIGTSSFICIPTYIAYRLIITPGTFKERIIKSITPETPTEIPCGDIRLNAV
# T3 sequence (P31645 whole entry I172F): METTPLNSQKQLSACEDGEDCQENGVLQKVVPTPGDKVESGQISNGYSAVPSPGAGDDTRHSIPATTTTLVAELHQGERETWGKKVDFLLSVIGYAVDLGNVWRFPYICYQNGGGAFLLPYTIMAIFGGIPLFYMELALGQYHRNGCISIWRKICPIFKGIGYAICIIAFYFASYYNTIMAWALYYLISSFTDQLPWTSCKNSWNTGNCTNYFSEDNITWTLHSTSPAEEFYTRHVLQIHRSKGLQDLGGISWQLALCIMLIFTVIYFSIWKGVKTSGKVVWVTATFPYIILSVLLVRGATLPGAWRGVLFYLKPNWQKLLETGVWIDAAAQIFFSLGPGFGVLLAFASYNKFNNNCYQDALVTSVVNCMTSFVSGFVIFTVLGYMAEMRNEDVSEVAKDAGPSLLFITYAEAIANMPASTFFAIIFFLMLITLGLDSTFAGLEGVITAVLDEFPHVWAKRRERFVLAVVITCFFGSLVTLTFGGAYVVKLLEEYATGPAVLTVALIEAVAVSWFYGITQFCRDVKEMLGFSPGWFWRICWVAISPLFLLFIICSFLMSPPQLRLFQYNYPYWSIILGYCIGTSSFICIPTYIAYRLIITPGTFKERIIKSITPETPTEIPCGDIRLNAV
# T5 sequence (P31645 whole entry T583A): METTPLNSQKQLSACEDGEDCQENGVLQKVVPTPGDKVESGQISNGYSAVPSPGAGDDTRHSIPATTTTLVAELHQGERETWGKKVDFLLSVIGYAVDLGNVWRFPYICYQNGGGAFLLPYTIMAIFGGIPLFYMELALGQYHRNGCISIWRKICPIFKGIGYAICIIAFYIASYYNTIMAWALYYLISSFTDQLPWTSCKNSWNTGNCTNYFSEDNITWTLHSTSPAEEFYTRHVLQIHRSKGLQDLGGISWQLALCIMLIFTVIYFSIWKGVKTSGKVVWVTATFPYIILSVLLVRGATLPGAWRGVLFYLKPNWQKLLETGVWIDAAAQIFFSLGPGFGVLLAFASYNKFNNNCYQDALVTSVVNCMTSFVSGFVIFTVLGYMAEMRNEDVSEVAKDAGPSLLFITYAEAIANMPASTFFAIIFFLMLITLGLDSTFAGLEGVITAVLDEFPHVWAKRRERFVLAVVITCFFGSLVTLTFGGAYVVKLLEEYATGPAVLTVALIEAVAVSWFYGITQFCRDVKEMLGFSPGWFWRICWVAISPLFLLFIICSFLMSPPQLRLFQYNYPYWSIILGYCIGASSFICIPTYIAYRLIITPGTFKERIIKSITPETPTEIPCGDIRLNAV
# T2 sequence (P31645 whole entry L565A): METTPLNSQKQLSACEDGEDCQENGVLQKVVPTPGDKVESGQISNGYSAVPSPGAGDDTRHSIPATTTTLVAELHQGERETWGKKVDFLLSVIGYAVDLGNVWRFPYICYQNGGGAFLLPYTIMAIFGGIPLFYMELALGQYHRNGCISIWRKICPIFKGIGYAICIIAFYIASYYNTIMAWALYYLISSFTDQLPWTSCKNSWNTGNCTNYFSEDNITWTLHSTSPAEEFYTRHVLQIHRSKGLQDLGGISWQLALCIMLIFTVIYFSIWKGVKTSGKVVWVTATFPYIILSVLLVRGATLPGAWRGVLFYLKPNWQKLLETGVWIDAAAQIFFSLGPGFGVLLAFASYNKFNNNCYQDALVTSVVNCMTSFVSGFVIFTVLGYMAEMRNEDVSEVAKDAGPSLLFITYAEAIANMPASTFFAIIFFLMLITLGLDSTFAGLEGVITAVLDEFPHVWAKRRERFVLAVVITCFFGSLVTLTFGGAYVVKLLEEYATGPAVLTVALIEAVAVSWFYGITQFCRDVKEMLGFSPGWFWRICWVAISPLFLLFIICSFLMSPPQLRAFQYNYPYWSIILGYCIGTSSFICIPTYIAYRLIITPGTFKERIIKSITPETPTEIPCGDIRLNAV
# T7 sequence (P31645 whole entry S438T): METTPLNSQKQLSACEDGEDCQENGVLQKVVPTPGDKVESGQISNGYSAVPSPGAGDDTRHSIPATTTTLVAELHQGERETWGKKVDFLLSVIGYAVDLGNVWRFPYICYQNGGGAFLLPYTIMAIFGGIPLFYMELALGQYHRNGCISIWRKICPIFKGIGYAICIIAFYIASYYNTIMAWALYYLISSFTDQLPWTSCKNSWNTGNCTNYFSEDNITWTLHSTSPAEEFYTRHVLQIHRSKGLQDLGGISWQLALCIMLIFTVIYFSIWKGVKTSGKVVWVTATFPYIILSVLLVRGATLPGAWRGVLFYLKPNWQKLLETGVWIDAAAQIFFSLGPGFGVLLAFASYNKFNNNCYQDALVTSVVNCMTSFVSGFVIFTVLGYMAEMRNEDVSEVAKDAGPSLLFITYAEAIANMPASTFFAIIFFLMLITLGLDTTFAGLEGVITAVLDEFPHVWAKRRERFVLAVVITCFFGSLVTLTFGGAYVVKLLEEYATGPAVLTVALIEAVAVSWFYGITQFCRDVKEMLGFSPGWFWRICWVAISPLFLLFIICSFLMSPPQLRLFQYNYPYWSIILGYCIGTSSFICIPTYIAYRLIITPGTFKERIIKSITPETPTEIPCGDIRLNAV
structure (smiles),measurement,setting,value
"COc1cc([C@@H]2OC[C@@H]3[C@H]2CO[C@H]3c2cc(OC)c(O)c(OC)c2)cc(OC)c1O [SYR, (-)-syringaresinol]",IC50,"hSERT WT; WT, APP^+ uptake, SYR added 5 min prior to APP^+, read-out: SYR IC50 for Transport",0.25 ± 0.01 µM
same,Vmax of APP^+ transport with addition of SYR,hSERT WT; […] SYR,12.95 ± 1.52 AFU/min
same,increase of inhibitory potency compared with SAG,hSERT WT; compared with glycoside derivative SAG,approximately 10 fold
same,mode of inhibition of APP^+ transport,"hSERT WT; decreased Vmax, little change in Km",noncompetitive inhibitor
same,IC50,hSERT L565A,9.98 ± 1.22 µM
same,IC50,hSERT I172F,2.22 ± 0.04 µM
same,IC50,hSERT G498T,91 ± 6.29 µM
same,IC50,hSERT T583A,30.9 ± 0.93 µM
same,IC50,hSERT Y95F,1.21 ± 0.01 µM
same,IC50,hSERT S438T,2.32 ± 0.02 µM
same,SYR IC50 for APP^+ uptake relative to WT,[1],3- to 10 fold
same,home cage food consumption,CUMS mice,little effect
same,hSERT expression on the cell surface,hSERT,did not alter
